According to US5196424A, “N-[2-amino-4-substituted[[(pyrrollo or pyrido)[2,3-d]pyrimidinyl]-alkyl]benzoyl]-L-glutamic acids” (priority 1992, dated 1993):
pIC50: −log10 of the molar value. Converted amounts (≈) assume the structure as drawn. Read-outs that look alike come from different tables or passages of the source.

Legend:
CCRF-CEM cells = experiment: Growth inhibition of CCRF-CEM human leukemia cells, 72 h, Coulter counter (Table I); type: cell-based; settings: read-out: IC50, concentration required for 50% inhibition of growth
Description: Cluster plates were prepared in duplicate with the compound at various concentrations ranging from 100 μg/ml to 0.005 μg/ml. Test compounds were dissolved initially in DMSO and further diluted with solvent to the desired concentration.

6C3HED lymphosarcoma = experiment: In vivo test against transplanted 6C3HED (Gardner) lymphosarcoma in C3H mice (Table II)
Description: The compounds were tested in C3H mice bearing a 6C3HED lymphosarcoma, also known as the Gardner lymphosarcoma (GLS). The 6C3HED lymphosarcoma was obtained from the Division of Cancer Treatment, National Cancer Institute, Tumor Bank, maintained at E. G. and G. Mason Research (Worcester, Massachusetts). First passage tumor was stored in liquid nitrogen using standard techniques. The transplanted tumor was reestablished from the Tumor Bank every six months or as needed. The tumor was maintained by serial passage twice weekly in C3H mice.
In the procedure, the tumor was removed from passage animals and minced into 1- to 3-mm square fragments using sterile techniques. Tumor pieces were checked for sterility using both Antibiotic Medium 1 and Brain Heart Infusion (Difco, Detroit, Mich.). Recipient mice were shaved and tumor pieces were implanted subcutaneiously in the auxiliary region by trocar. Drug therapy on the appropriate schedule was initiated on the day after tumor implant. The compound being tested was mixed with 2.5 weight % of a polyoxyethylated oil known as "Emulphor EL 620" surfactant from GAF Chemicals Corporation (1:40 dilution of Empulphor in saline). All animals were weighed at the beginning and end of administration of the subject compounds. Food and water were provided ad libitum. The drug was administered in 0.5 ml of 2.5% Emulphor. Unless otherwise indicated, the compound was administered once per day for eight days. The tumor was measured the day after treatment ended with two dimensional measurements (width and length) of the tumor taken using digital electronic calipers interfaced to a microcomputer, J. F. Worzalla, et al., Investigational New Drugs, 8, 241-251 (1990). Tumor weights were calculated from these measurements using the following formula:
(tumor weight in mg)=width in mm)^2 ×(length in mm)/2
At least one control group of an equal number of mice was treated with the same volume of 2.5% Emulphor only.

[1] = molecular target: T1, human dihydrofolate reductase (DHFR) (Homo sapiens, UniProt P00374); experiment: Inhibition of isolated human dihydrofolate reductase (Table III); type: biochemical; settings: DHFR (5 × 10^-8 M); read-out: DHFR IC50, concentration required for 50% inhibition of enzyme activity
T1 construct: was obtained from human leukemic lymphoblasts (WI-L2/M4 cells); endogenous in cells; host or cells: WI-L2/M4 human leukemic lymphoblasts; enzyme purified from the cells according to Delcamp et al., Biochemistry 22, 633-639 (1983)
T1 sequence (P00374 1-187): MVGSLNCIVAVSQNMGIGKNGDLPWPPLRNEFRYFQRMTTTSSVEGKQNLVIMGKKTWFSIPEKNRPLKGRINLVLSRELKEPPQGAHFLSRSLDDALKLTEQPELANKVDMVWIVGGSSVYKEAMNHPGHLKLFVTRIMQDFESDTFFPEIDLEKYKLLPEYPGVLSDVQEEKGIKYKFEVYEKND

[2] = test system: C3H Mammary Adenocarcinoma; settings: Days 1,3,5,7,9
dihydrofolic reducatase = settings: background statement; cited from earlier work
[3] = CCRF-CEM cells, 72 h incubation

## Nc1nc(Cl)c2c(CCc3ccc(C(=O)N[C@@H](CCC(=O)O)C(=O)O)cc3)c[nH]c2n1 [Example 1, N-[2-amino-4-chloro-[[pyrrolo[2,3-d]-pyrimidin-5-yl]-ethyl]benzoyl]-L-glutamic acid]
CCRF-CEM cells; [3]
  IC50: > 20 µg/mL

## Nc1nc(S)c2c(CCc3ccc(C(=O)N[C@@H](CCC(=O)O)C(=O)O)cc3)c[nH]c2n1 [Example 2, N-[2-amino-4-mercapto[[pyrrolo[2,3-d]-pyrimidin-5-yl]-ethyl]benzoyl]-L-glutamic acid]
CCRF-CEM cells; [3]
  IC50: 0.032 µg/mL (≈ 0.0722 µM)

## Nc1ncc2c(CCc3ccc(C(=O)N[C@@H](CCC(=O)O)C(=O)O)cc3)c[nH]c2n1 [Example 3, N-[2-amino-[[pyrrolo[2,3-d]-pyrimidin-5-yl]-ethyl]benzoyl]-L-glutamic acid]
CCRF-CEM cells; [3]
  IC50: 0.019 µg/mL (≈ 0.0462 µM)

## Nc1ncc2c(n1)NCC2CCc1ccc(C(=O)N[C@@H](CCC(=O)O)C(=O)O)cc1 (stereo partly drawn) [Example 4, N-[2-amino-[di-hydropyrrolo[2,3-d]pyrimidin-5-yl]-ethyl]benzoyl-L-glutamicacid]
CCRF-CEM cells; [3]
  IC50: 0.005 µg/mL (≈ 0.0121 µM)
6C3HED lymphosarcoma; 0.25 mg/kg, Dailyx8
  % INH (percent inhibition of tumor): 0%
  Toxic/Total: 0/10
6C3HED lymphosarcoma; 0.50 mg/kg, Dailyx8
  % INH (percent inhibition of tumor): 1%
  Toxic/Total: 0/10
6C3HED lymphosarcoma; 1.00 mg/kg, Dailyx8
  Toxic/Total: 0/10
6C3HED lymphosarcoma; 2.00 mg/kg, Dailyx8
  % INH (percent inhibition of tumor): 97%
  Toxic/Total: 0/10
6C3HED lymphosarcoma; 2 mg/kg, Days 1,3,5,7
  % INH (percent inhibition of tumor): 49%
  Toxic/Total: 0/10
6C3HED lymphosarcoma; 4.00 mg/kg, Dailyx8
  % INH (percent inhibition of tumor): 100%
  Toxic/Total: 1/10
6C3HED lymphosarcoma; 4 mg/kg, Days 1,3,5,7
  % INH (percent inhibition of tumor): 99%
  Toxic/Total: 0/10
6C3HED lymphosarcoma; 6.25 mg/kg, Dailyx8
  % INH (percent inhibition of tumor): 100%
  Toxic/Total: 6/10
6C3HED lymphosarcoma; 8 mg/kg, Days 1,3,5,7
  Toxic/Total: 0/10
6C3HED lymphosarcoma; 12.5 mg/kg, Dailyx8
  % INH (percent inhibition of tumor): 100%
  Toxic/Total: 8/10
6C3HED lymphosarcoma; 16 mg/kg, Days 1,3,5,7
  % INH (percent inhibition of tumor): 100%
  Toxic/Total: 0/10
6C3HED lymphosarcoma; 25 mg/kg, Dailyx8
  Toxic/Total: 10/10
6C3HED lymphosarcoma; 50 mg/kg, Dailyx8
  Toxic/Total: 10/10
[1]
  pIC50: 7.02
[2]; 1 mg/kg
  Toxic/Total: 0/10
[2]; 2 mg/kg
  % INH (percent inhibition of tumor): 10%
  Toxic/Total: 0/10
[2]; 4 mg/kg
  % INH (percent inhibition of tumor): 24%
  Toxic/Total: 0/10
[2]; 16 mg/kg
  % INH (percent inhibition of tumor): 92%
[2]; 32 mg/kg
  % INH (percent inhibition of tumor): 95%

## COc1nc(N)nc2[nH]cc(CCc3ccc(C(=O)N[C@@H](CCC(=O)O)C(=O)O)cc3)c12 [Example 5, N-[2-amino-4-methoxy[[pyrrolo[2,3-d]-pyrimidin-5-yl]-ethyl]benzoyl]-L-glutamic acid]
CCRF-CEM cells; [3]
  IC50: > 2 µg/mL

## CCN(CC)c1nc(N)nc2[nH]cc(CCc3ccc(C(=O)N[C@@H](CCC(=O)O)C(=O)O)cc3)c12 [Example 6, N-[2-amino-4-diethylamino-[[pyrrolo[2,3-d]-pyrimidin-5-yl]-ethyl]benzoyl]-L-glutamic acid]
CCRF-CEM cells; [3]
  IC50: 0.9 µg/mL (≈ 1.87 µM)

## Nc1ncc2c(n1)NCC(CCc1ccc(C(=O)N[C@@H](CCC(=O)O)C(=O)O)cc1)C2 (stereo partly drawn) [Example 7, N-[2-amino-[[tetrahydropyrido[2,3-d]-pyrimidin-6-yl]-ethyl]benzoyl]-L-glutamic acid]
CCRF-CEM cells; CCRF-CEM, 72 h
  IC50: 0.005 µg/mL (≈ 0.0117 µM)

## CN(Cc1cnc2nc(N)nc(N)c2n1)c1ccc(C(=O)N[C@@H](CCC(=O)O)C(=O)O)cc1 [amethopterin]
Dihydrofolic reducatase
  inhibition of the second reduction, from dihydrofolic acid to tetrahydrofolic acid: inhibit the second reduction
